Assay results from patent US20220389007A1, “INHIBITORS OF HUMAN IMMUNODEFICIENCY VIRUS REPLICATION” (VIIV HEALTHCARE UK (No. 5) LIMITED, priority 2019, published 2022).

Legend:
recombinant NL4-3 virus = assay: HIV cell culture assay (antiviral activity, luciferase readout); format: cell-based; settings: Human immunodeficiency virus 1, NL43, MT2, MT-2 cells infected for 4-5 days with recombinant NL4-3 virus carrying Renilla luciferase
Protocol: HIV cell culture assay—MT-2 cells, 293T cells and the proviral DNA clone of NL4-3 virus were obtained from the NIH AIDS Research and Reference Reagent Program. MT-2 cells were propagated in RPMI 1640 media supplemented with 10% heat inactivated fetal bovine serum (FBS), […]. The 293T cells were propagated in DMEM media supplemented with 10% heat inactivated FBS, […]. A recombinant NL4-3 proviral clone, in which a section of the nef gene was replaced with the Renilla luciferase gene, was used to make the reference virus used in these studies. The recombinant virus was prepared through transfection of the recombinant NL4-3 proviral clone into 293T cells using Transit-293 Transfection Reagent from Mirus Bio LLC (Madison, WI). Supernatent was harvested after 2-3 days and the amount of virus present was titered in MT-2 cells using luciferase enzyme activity as a marker by measuring luciferase enzyme activity. Luciferase was quantitated using the EnduRen Live Cell Substrate from Promega (Madison, Wis.). Antiviral activities of compounds toward the recombinant virus were quantified by measuring luciferase activity in MT-2 cells infected for 4-5 days with the recombinant virus in the presence of serial dilutions of the compound.
The 50% effective concentration (EC50) was calculated by using the exponential form of the median effect equation where (Fa)=1/[1+(ED50/drug conc.)m] (Johnson VA, Byington RT. Infectivity Assay. In Techniques in HIV Research. ed. Aldovini A, Walker BD. 71-76. New York: Stockton Press. 1990). The 50% inhibitory concentration (EC50) was calculated by using the exponential form of the median effect equation where percent inhibition=1/[1+(EC50/drug concentration)m], where m is a parameter that reflects the slope of the concentration-response curve.

[1] = Compound cytotoxicity, XTT-based colorimetric assay; format: cell-based; settings: human; uninfected MT2 cells, day 4, XTT assay
Protocol: Compound cytotoxicity and the corresponding CC50 values were determined using the same protocol as described in the antiviral assay except that uninfected cells were used. Cytotoxicity was assessed on day 4 in uninfected MT2 cells by using a XTT (2,3-bis[2-Methoxy-4-nitro-5-sulfophenyl]-2H-tetrazolium-5-carboxyanilide inner salt)-based colorimetric assay (Sigma-Aldrich, St Louis, Mo.).

| SMILES | EC50 (recombinant NL4-3 virus) [nM] | CC50 at 4 day [1] [nM] |
| --- | --- | --- |
| Cc1nc2ccc(-c3ccc4c(=O)n(-c5ccc(Cl)c6c(NS(C)(=O)=O)nn(C)c56)c([C@H](Cc5cc(F)cc(F)c5)NC(=O)Cn5nc(C(F)F)c6c5C(F)(F)[C@@H]5C[C@H]65)nc4n3)cc2s1 (atropisomer, axis not shown; (P)) [Example 67, N-((S)-1-((3P)-3-(4-chloro-1-methyl-3-(methylsulfonamido)-1H-indazol-7-yl)-7-(2-methylbenzo[d]thiazol-6-yl)-4-oxo-3,4-dihydropyrido[2,3-d]pyrimidin-2-yl)-2-(3,5-difluorophenyl)ethyl)-2-((3bS,4aR)-3-(difluoromethyl)-5,5-difluoro-3b,4,4a,5-tetrahydro-1H-cyclopropa[3,4]cyclopenta[1,2-c]pyrazol-1-yl)acetamide] | 0.55 | > 100 |
| Cn1nc(NS(C)(=O)=O)c2c(Cl)ccc(-n3c([C@H](Cc4cc(F)cc(F)c4)NC(=O)Cn4nc(C(F)F)c5c4C(F)(F)[C@@H]4C[C@H]54)nc4nc(-c5ccnc(C(F)(F)F)n5)ccc4c3=O)c21 (atropisomer, axis not shown; (P)) [Example 37, N-((S)-1-((3P)-3-(4-chloro-1-methyl-3-(methylsulfonamido)-1H-indazol-7-yl)-4-oxo-7-(2-(trifluoromethyl)pyrimidin-4-yl)-3,4-dihydropyrido[2,3-d]pyrimidin-2-yl)-2-(3,5-difluorophenyl)ethyl)-2-((3bS,4aR)-3-(difluoromethyl)-5,5-difluoro-3b,4,4a,5-tetrahydro-1H-cyclopropa[3,4]cyclopenta[1,2-c]pyrazol-1-yl)acetamide] | 0.11 | > 100 |
| Cn1nc(NS(C)(=O)=O)c2c(Cl)ccc(-n3c([C@H](Cc4cc(F)cc(F)c4)NC(=O)Cn4nc(C(F)F)c5c4C(F)(F)[C@@H]4C[C@H]54)nc4nc(-c5cnccn5)ccc4c3=O)c21 (atropisomer, axis not shown; (P)) [Example 8, N-((S)-1-((3P)-3-(4-chloro-1-methyl-3-(methylsulfonamido)-1H-indazol-7-yl)-4-oxo-7-(pyrazin-2-yl)-3,4-dihydropyrido[2,3-d]pyrimidin-2-yl)-2-(3,5-difluorophenyl)ethyl)-2-((3bS,4aR)-3-(difluoromethyl)-5,5-difluoro-3b,4,4a,5-tetrahydro-1H-cyclopropa[3,4]cyclopenta[1,2-c]pyrazol-1-yl)acetamide] | 0.019 | > 100 |
| COc1cncc(-c2ccc3c(=O)n(-c4ccc(Cl)c5c(NS(C)(=O)=O)nn(C)c45)c([C@H](Cc4cc(F)cc(F)c4)NC(=O)Cn4nc(C(F)F)c5c4C(F)(F)[C@@H]4C[C@H]54)nc3n2)c1 (atropisomer, axis not shown; (P)) [Example 51, N-((S)-1-((3P)-3-(4-chloro-1-methyl-3-(methylsulfonamido)-1H-indazol-7-yl)-7-(5-methoxypyridin-3-yl)-4-oxo-3,4-dihydropyrido[2,3-d]pyrimidin-2-yl)-2-(3,5-difluorophenyl)ethyl)-2-((3bS,4aR)-3-(difluoromethyl)-5,5-difluoro-3b,4,4a,5-tetrahydro-1H-cyclopropa[3,4]cyclopenta[1,2-c]pyrazol-1-yl)acetamide] | 0.085 | > 100 |
| Cn1nc(NS(C)(=O)=O)c2c(Cl)ccc(-n3c([C@H](Cc4cc(F)cc(F)c4)NC(=O)Cn4nc(C(F)F)c5c4C(F)(F)[C@@H]4C[C@H]54)nc4nc(-c5ccnn5CC5CC5)ccc4c3=O)c21 (atropisomer, axis not shown; (P)) [Example 78, N-((S)-1-((3P)-3-(4-chloro-1-methyl-3-(methylsulfonamido)-1H-indazol-7-yl)-7-(1-(cyclopropylmethyl)-1H-pyrazol-5-yl)-4-oxo-3,4-dihydropyrido[2,3-d]pyrimidin-2-yl)-2-(3,5-difluorophenyl)ethyl)-2-((3bS,4aR)-3-(difluoromethyl)-5,5-difluoro-3b,4,4a,5-tetrahydro-1H-cyclopropa[3,4]cyclopenta[1,2-c]pyrazol-1-yl)acetamide] | 0.09 | > 100 |
| Cn1nc(NS(C)(=O)=O)c2c(Cl)ccc(-n3c([C@H](Cc4cc(F)cc(F)c4)NC(=O)Cn4nc(C(F)F)c5c4C(F)(F)[C@@H]4C[C@H]54)nc4nc(-c5ccn(CCC(F)(F)F)n5)ccc4c3=O)c21 (atropisomer, axis not shown; (P)) [Example 89, N-((S)-1-((3P)-3-(4-chloro-1-methyl-3-(methylsulfonamido)-1H-indazol-7-yl)-4-oxo-7-(1-(3,3,3-trifluoropropyl)-1H-pyrazol-3-yl)-3,4-dihydropyrido[2,3-d]pyrimidin-2-yl)-2-(3,5-difluorophenyl)ethyl)-2-((3bS,4aR)-3-(difluoromethyl)-5,5-difluoro-3b,4,4a,5-tetrahydro-1H-cyclopropa[3,4]cyclopenta[1,2-c]pyrazol-1-yl)acetamide] | 0.056 | > 100 |
| Cn1nc(NS(C)(=O)=O)c2c(Cl)ccc(-n3c([C@H](Cc4cc(F)cc(F)c4)NC(=O)Cn4nc(C(F)F)c5c4C(F)(F)[C@@H]4C[C@H]54)nc4ncc(-c5cccc(C(F)(F)F)n5)cc4c3=O)c21 (atropisomer, axis not shown; (P)) [Example 1, N-((S)-1-((3P)-3-(4-chloro-1-methyl-3-(methylsulfonamido)-1H-indazol-7-yl)-4-oxo-6-(6-(trifluoromethyl)pyridin-2-yl)-3,4-dihydropyrido[2,3-d]pyrimidin-2-yl)-2-(3,5-difluorophenyl)ethyl)-2-((3bS,4aR)-3-(difluoromethyl)-5,5-difluoro-3b,4,4a,5-tetrahydro-1H-cyclopropa[3,4]cyclopenta[1,2-c]pyrazol-1-yl)acetamide] | 0.055 | > 100 |
| Cn1nc(NS(C)(=O)=O)c2c(Cl)ccc(-n3c([C@H](Cc4cc(F)cc(F)c4)NC(=O)Cn4nc(C(F)F)c5c4C(F)(F)[C@@H]4C[C@H]54)nc4nc(-c5ccc(F)cc5C(F)(F)F)ccc4c3=O)c21 (atropisomer, axis not shown; (P)) [Example 22, N-((S)-1-((3P)-3-(4-chloro-1-methyl-3-(methylsulfonamido)-1H-indazol-7-yl)-7-(4-fluoro-2-(trifluoromethyl)phenyl)-4-oxo-3,4-dihydropyrido[2,3-d]pyrimidin-2-yl)-2-(3,5-difluorophenyl)ethyl)-2-((3bS,4aR)-3-(difluoromethyl)-5,5-difluoro-3b,4,4a,5-tetrahydro-1H-cyclopropa[3,4]cyclopenta[1,2-c]pyrazol-1-yl)acetamide] | 0.052 | > 100 |
| Cn1nc(NS(C)(=O)=O)c2c(Cl)ccc(-n3c([C@H](Cc4cc(F)cc(F)c4)NC(=O)Cn4nc(C(F)F)c5c4C(F)(F)[C@@H]4C[C@H]54)nc4nc(-c5cccc(OC(F)(F)F)c5)ccc4c3=O)c21 (atropisomer, axis not shown; (P)) [Example 21, N-((S)-1-((3P)-3-(4-chloro-1-methyl-3-(methylsulfonamido)-1H-indazol-7-yl)-4-oxo-7-(3-(trifluoromethoxy)phenyl)-3,4-dihydropyrido[2,3-d]pyrimidin-2-yl)-2-(3,5-difluorophenyl)ethyl)-2-((3bS,4aR)-3-(difluoromethyl)-5,5-difluoro-3b,4,4a,5-tetrahydro-1H-cyclopropa[3,4]cyclopenta[1,2-c]pyrazol-1-yl)acetamide] | 0.39 | > 100 |
| Cn1nc(NS(C)(=O)=O)c2c(Cl)ccc(-n3c([C@H](Cc4cc(F)cc(F)c4)NC(=O)Cn4nc(C(F)F)c5c4C(F)(F)[C@@H]4C[C@H]54)nc4nc(-c5csc(C(F)(F)F)n5)ccc4c3=O)c21 (atropisomer, axis not shown; (P)) [Example 4, N-((S)-1-((3P)-3-(4-chloro-1-methyl-3-(methylsulfonamido)-1H-indazol-7-yl)-4-oxo-7-(2-(trifluoromethyl)thiazol-4-yl)-3,4-dihydropyrido[2,3-d]pyrimidin-2-yl)-2-(3,5-difluorophenyl)ethyl)-2-((3bS,4aR)-3-(difluoromethyl)-5,5-difluoro-3b,4,4a,5-tetrahydro-1H-cyclopropa[3,4]cyclopenta[1,2-c]pyrazol-1-yl)acetamide] | 0.055 | > 100 |
